Experimental data: the supplement of paper PMC11451515

Test system: SEM cells
Assay: cell viability relative to DMSO control; higher = less cytotoxic
Details: 48 h
Summary of the method: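 Viability is expressed as a percentage of DMSO wells within each plate, and cell-free wells serve as background. Seeding densities in the 1536-well plates (5 μl) were 500 cells/well for NOMO1 or SEM leukemia cells and 1000 cells/well for P12-Ichikawa. Each line was adapted for at least four passages in each medium. Library compounds in DMSO were pin-dosed at 47 μM to 0.79 nM (11 points, threefold), and CellTiter-Glo One luminescence was read after 48 h at 37°C.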

[1] = HPLM + 10% dialyzed FBS, 0.000781 µM
[2] = HPLM + 10% dialyzed FBS, 0.00234 µM
[3] = HPLM + 10% dialyzed FBS, 0.00702 µM
[4] = HPLM + 10% dialyzed FBS, 0.0211 µM
[5] = HPLM + 10% dialyzed FBS, 0.0632 µM
[6] = HPLM + 10% dialyzed FBS, 0.19 µM
[7] = HPLM + 10% dialyzed FBS, 0.569 µM
[8] = HPLM + 10% dialyzed FBS, 1.71 µM
[9] = HPLM + 10% dialyzed FBS, 5.12 µM
[10] = HPLM + 10% dialyzed FBS, 15.4 µM
[11] = HPLM + 10% dialyzed FBS, 46.1 µM
[12] = RPMI 5 mM glucose + 10% FBS, 0.000781 µM
[13] = RPMI 5 mM glucose + 10% FBS, 0.00234 µM
[14] = RPMI 5 mM glucose + 10% FBS, 0.00702 µM
[15] = RPMI 5 mM glucose + 10% FBS, 0.0211 µM
[16] = RPMI 5 mM glucose + 10% FBS, 0.0632 µM
[17] = RPMI 5 mM glucose + 10% FBS, 0.19 µM
[18] = RPMI 5 mM glucose + 10% FBS, 0.569 µM
[19] = RPMI 5 mM glucose + 10% FBS, 1.71 µM
[20] = RPMI 5 mM glucose + 10% FBS, 5.12 µM
[21] = RPMI 5 mM glucose + 10% FBS, 15.4 µM
[22] = RPMI 5 mM glucose + 10% FBS, 46.1 µM
[23] = RPMI 5 mM glucose + 10% dialyzed FBS, 0.000781 µM
[24] = RPMI 5 mM glucose + 10% dialyzed FBS, 0.00234 µM
[25] = RPMI 5 mM glucose + 10% dialyzed FBS, 0.00702 µM
[26] = RPMI 5 mM glucose + 10% dialyzed FBS, 0.0211 µM
[27] = RPMI 5 mM glucose + 10% dialyzed FBS, 0.0632 µM
[28] = RPMI 5 mM glucose + 10% dialyzed FBS, 0.19 µM
[29] = RPMI 5 mM glucose + 10% dialyzed FBS, 0.569 µM
[30] = RPMI 5 mM glucose + 10% dialyzed FBS, 1.71 µM
[31] = RPMI 5 mM glucose + 10% dialyzed FBS, 5.12 µM
[32] = RPMI 5 mM glucose + 10% dialyzed FBS, 15.4 µM
[33] = RPMI 5 mM glucose + 10% dialyzed FBS, 46.1 µM

| SMILES | cell viability [1] [%] | cell viability [2] [%] | cell viability [3] [%] | cell viability [4] [%] | cell viability [5] [%] | cell viability [6] [%] | cell viability [7] [%] | cell viability [8] [%] | cell viability [9] [%] | cell viability [10] [%] | cell viability [11] [%] | cell viability [12] [%] | cell viability [13] [%] | cell viability [14] [%] | cell viability [15] [%] | cell viability [16] [%] | cell viability [17] [%] | cell viability [18] [%] | cell viability [19] [%] | cell viability [20] [%] | cell viability [21] [%] | cell viability [22] [%] | cell viability [23] [%] | cell viability [24] [%] | cell viability [25] [%] | cell viability [26] [%] | cell viability [27] [%] | cell viability [28] [%] | cell viability [29] [%] | cell viability [30] [%] | cell viability [31] [%] | cell viability [32] [%] | cell viability [33] [%] |
| --- | --- | --- | --- | --- | --- | --- | --- | --- | --- | --- | --- | --- | --- | --- | --- | --- | --- | --- | --- | --- | --- | --- | --- | --- | --- | --- | --- | --- | --- | --- | --- | --- | --- |
| Cc1cc(SCc2sc(-c3ccc(C(F)(F)F)cc3)nc2C)ccc1OCC(=O)O | 98.4 | 102 | 98.3 | 113 | 102 | 109 | 113 | 105 | 99.3 | 48.9 | 98.4 | 94.3 | 101 | 89.4 | 102 | 102 | 105 | 100 | 104 | 114 | 57.5 | 93.5 | 99.9 | 101 | 96.1 | 97 | 109 | 92.5 | 102 | 109 | 99.4 | 48.3 | 97.9 |
| CN1\N=N/C2=C(N=C[N]2C1=O)C(N)=O | 112 | 114 | 132 | 111 | 121 | 88.2 | 60.9 | 57.7 | 51.2 | 38.7 | 25.3 | 85.8 | 102 | 106 | 86.2 | 88.5 | 67.7 | 47.6 | 50.6 | 41.9 | 28.4 | 24.1 | 105 | 115 | 139 | 116 | 113 | 78.7 | 58.7 | 37.4 | 31.9 | 28.9 | 20.5 |
| CO[C@@H]1[C@@H](OC(N)=O)[C@@H](O)[C@H](OC2=CC=C3\C(=C(NC(=O)C4=CC=C([O-])C(=C4)CC=C(C)C)/C(=O)OC3=C2C)O)OC1(C)C | 106 | 110 | 123 | 97.7 | 118 | 116 | 102 | 101 | 121 | 98.7 | 117 |  |  |  |  |  |  |  |  |  |  |  | 105 | 106 | 109 | 114 | 111 | 115 | 109 | 101 | 107 | 81.5 | 110 |
| CCc1cccc2c3c([nH]c12)C(CC)(CC(=O)O)OCC3 (stereo not drawn) | 105 | 90.9 | 105 | 112 | 101 | 120 | 114 | 108 | 103 | 47.2 | 103 | 83.6 | 37.6 | 85.4 | 96.2 | 98 | 87.6 | 105 | 102 | 105 | 40.7 | 91.9 | 94.2 | 93 | 102 | 107 | 112 | 103 | 102 | 110 | 105 | 34.7 | 89.4 |
| OC(CCN1CCCCC1)(C2CC\3CC2\C=C3)C4=CC=CC=C4 (stereo not drawn) | 102 | 110 | 113 | 97.7 | 123 | 120 | 121 | 94.8 | 118 | 129 | 126 | 94.9 | 126 | 115 | 91 | 122 | 119 | 116 | 107 | 123 | 134 | 121 | 104 | 104 | 113 | 70.2 | 129 | 113 | 127 | 120 | 132 | 136 | 131 |
| O=C(C[C@@H]1C/C=C\CCC(=O)O[C@H](c2ccccc2)CNC1=O)NCc1ccc(Cl)cc1 | 77 | 109 | 46.9 | 111 | 109 | 118 | 128 | 107 | 107 | 112 | 118 | 85.7 | 102 | 11.1 | 88.8 | 95.7 | 96.3 | 101 | 102 | 98.9 | 90.9 | 94 | 83.6 | 106 | 34.3 | 121 | 116 | 128 | 122 | 104 | 107 | 103 | 102 |
| OCCNC1CCCc2c1[nH]c1ccc(-c3ccccc3)cc21 (stereo not drawn) | 81.1 | 86.7 | 91.5 | 84.7 | 106 | 101 | 90.2 | 100 | 85.4 | 67.3 | 19.5 | 99.6 | 87.8 | 101 | 109 | 108 | 105 | 88.7 | 91.6 | 74 | 56.1 | 5.82 | 85.6 | 87.9 | 89.7 | 96.1 | 88.7 | 104 | 99 | 94.2 | 94.7 | 68.2 | 22.9 |
| CC(C)C(=O)Nc1ncc(-c2cc(C(F)F)nn2-c2c(Cl)cccc2Cl)s1 | 109 | 117 | 120 | 121 | 130 | 121 | 133 | 146 | 124 | 114 | 48.7 |  |  |  |  |  |  |  |  |  |  |  | 102 | 114 | 140 | 130 | 124 | 132 | 138 | 142 | 134 | 126 | 57.5 |
| Cc1cc(-c2nnc3n2CCCCC3)c(C)n1-c1ccccc1 | 110 | 116 | 115 | 123 | 117 | 118 | 120 | 119 | 98.7 | 117 | 115 | 53.2 | 124 | 103 | 107 | 95.6 | 107 | 124 | 126 | 109 | 115 | 102 | 113 | 114 | 140 | 131 | 95.3 | 127 | 136 | 135 | 114 | 126 | 107 |
| O=[S+]([O-])(CCSSCC[S+](=O)([O-])[O][Na])[O][Na] | 78.9 | 95.5 | 101 | 65.2 | 120 | 104 | 102 | 103 | 107 | 108 | 118 | 117 | 97.5 | 116 | 73.7 | 115 | 112 | 119 | 103 | 124 | 112 | 111 | 103 | 99.9 | 113 | 72.8 | 134 | 120 | 126 | 120 | 121 | 126 | 139 |
| COc1cc(Nc2ncc(F)c(Nc3ccc4c(n3)N(COP(=O)(O)O)C(=O)C(C)(C)O4)n2)cc(OC)c1OC | 77 | 88.7 | 95.8 | 91.2 | 65.9 | 55.2 | 35 | 33.5 | 49.9 | 37.1 | 35.5 | 98.2 | 108 | 102 | 107 | 77.9 | 41.1 | 26.5 | 34.7 | 42.8 | 35.1 | 34.4 | 80.8 | 96.6 | 83.5 | 82.1 | 60.2 | 35.7 | 25.1 | 23.7 | 35.1 | 22 | 24.6 |
| COc1ccc(CC2c3cc(OC)c(OC)cc3CC[N+]2(C)CCC(=O)OCCCCCOC(=O)CC[N+]2(C)CCc3cc(OC)c(OC)cc3C2Cc2ccc(OC)c(OC)c2)cc1OC (stereo not drawn) | 81.2 | 80.8 | 92.9 | 98.4 | 80.3 | 94 | 103 | 101 | 97.1 | 22.6 | 88 | 81 | 77.6 | 94 | 78.5 | 81.1 | 99.2 | 91.2 | 102 | 92.1 | 13.2 | 85.1 | 75 | 73.3 | 93.8 | 96 | 79.9 | 93.8 | 104 | 103 | 91.1 | 22.1 | 80.2 |
| NC(=O)c1cnc(-c2ccc(C3(N)CCC3)cc2)c(-c2ccccc2)c1 | 110 | 120 | 137 | 111 | 111 | 127 | 133 | 90.7 | 73.2 | 50.3 | 30.9 | 120 | 134 | 123 | 106 | 108 | 127 | 130 | 85.1 | 78 | 43.2 | 24.5 | 121 | 125 | 127 | 120 | 123 | 120 | 133 | 91.5 | 67 | 43.5 | 35.9 |
| FC(F)(F)C1=CC=C2C(SCCCCCO\C3=C\O\C(CN4CCOCC4)=C/C3=O)=CC=NC2=C1 | 92.4 | 106 | 107 | 106 | 108 | 115 | 111 | 119 | 112 | 106 | 96.2 | 66.6 | 74.4 | 69 | 67.2 | 63.7 | 72.9 | 77.8 | 65.4 | 66.1 | 69.4 | 61.9 | 112 | 113 | 104 | 110 | 102 | 112 | 115 | 110 | 99 | 102 | 85.7 |
| CN(C)CC[C@H](CSc1ccccc1)Nc1ccc([S+](=O)([O-])NC(=O)c2ccc(N3CCN(Cc4ccccc4-c4ccc(Cl)cc4)CC3)cc2)cc1[N+](=O)[O-] | 116 | 126 | 111 | 82.7 | 64.8 | 23.7 | 10.8 | 8.48 | 6.85 | 6.25 | 3.88 | 103 | 118 | 110 | 102 | 73.8 | 27.7 | 11.1 | 6.52 | 4.95 | 3.98 | 2.62 | 128 | 91.3 | 99.7 | 81.7 | 57.4 | 19.7 | 11.3 | 8.96 | 5.67 | 4.98 | 3.36 |
